# Measurements taken from patent publication US11976061B2, “Preparation of benzimidazolone derivatives as novel diacylglyceride O-acyltransferase 2 inhibitors” (Merck Sharp & Dohme LLC, priority 2020, dated 2024).
# Biological target: T1, human DGAT2 (hDGAT2) (Homo sapiens, UniProt Q96PD7)
# T1 construct: made in house; host or cells: Sf-9 insect cells (baculovirus), membrane fraction
# T1 sequence (Q96PD7 1-388): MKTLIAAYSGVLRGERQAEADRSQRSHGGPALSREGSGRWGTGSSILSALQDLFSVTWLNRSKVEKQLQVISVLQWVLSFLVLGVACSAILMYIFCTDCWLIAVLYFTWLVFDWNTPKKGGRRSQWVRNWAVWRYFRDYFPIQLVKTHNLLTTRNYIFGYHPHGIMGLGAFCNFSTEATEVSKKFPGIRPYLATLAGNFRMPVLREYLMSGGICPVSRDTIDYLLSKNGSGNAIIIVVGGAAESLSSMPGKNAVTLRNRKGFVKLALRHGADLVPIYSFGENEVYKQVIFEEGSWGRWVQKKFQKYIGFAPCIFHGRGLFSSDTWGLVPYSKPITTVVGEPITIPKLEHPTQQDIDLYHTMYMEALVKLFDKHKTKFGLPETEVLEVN
# Assay: DGAT2 Enzymatic Activity Assay
# Assay type: biochemical
# Conditions: membrane prep of Sf-9 cells expressing hDGAT2; 25 μM diolein, 5 μM 13C oleoyl-CoA; 13C18-triolein by LC/MS/MS; read-out: DGAT2 IC50
# Description: Insect Cell Expression and Membrane Preparation
# Sf-9 insect cells were maintained in Grace's insect cell culture medium with 10% heated-inactivated fetal bovine serum, 1% Pluronic F-68 and 0.14 μg/ml Kanamycine sulfate at 27° C. in a shaker incubator. After infection with untagged baculovirus expressing human DGAT2 (hDGAT2) at multiplicity of infection (MOI) 3 for 48 hours, cells were harvested. Cell pellets were suspended in buffer containing 10 mM Tris-HCl pH 7.5, 1 mM EDTA, 250 mM sucrose and Complete Protease Inhibitor Cocktail (Sigma Aldrich), and sonicated on ice. Cell debris were removed by centrifugation at 2000×g for 15 minutes. Membrane fractions were isolated by ultracentrifugation (100,000×g), resuspended in the same buffer, and frozen (−80° C.) for later use. The protein concentration was determined with the Pierce™ BCA Protein Assay Kit (Thermo Fisher Scientific). Expression of protein levels was analyzed by immunoblotting with rabbit anti-DGAT2 antibody (Abcam, ab102831) and donkey anti-rabbit IgG H&L Alexa Fluor® 647 (Abcam, ab150075) followed by detection using Typhoon FLA9000 (GE Healthcare).
# LC/MS/MS analyses were performed using Thermal Fisher's LX4-TSQ Vantage system. This system consists of an Agilent binary high-performance liquid chromatography (HPLC) pump and a TSQ Vantage triple quadrupole MS/MS instrument. For each sample, 2 μL samples from the top organic layer of in-plate liquid-liquid extraction were injected onto a Thermo Betabasic C4 column (2.1 mm×20 mm, 5 μm particle size). The samples were then eluted using the following conditions; mobile phase: Isopropanol:acetonitrile/10 mM ammonium formate=50/35/15 (v/v/v), flow rate: 0.8 mL/min, temperature: 25° C. Data was acquired in positive mode using a heated electrospray ionization (HESI) interface. The operational parameters for the TSQ Vantage MS/MS instrument were a spray voltage of 3000 V, capillary temperature of 280° C., vaporizer temperature 400° C., sheath gas 45 arbitrary unit, Aux gas 10 arbitrary units, S-lens 165 and collision gas 1.0 mTorr. […] (SRM) chromatograms of ^13C18-triolein (Q1: 920.8>Q3: 621.3) and internal standard ^13C21-triolein (Q1: 923.8>Q3: 617.3) were collected for 33 sec. The peak area was integrated by Xcalibur Quan software. The ratio between the ^13C18triolein generated in the reaction and spiked in internal standard ^13C21-triolein was used to generate percentage inhibition and IC50 values. Compound percentage inhibition was calculated by the following formula: Inhibition %=1−[(compound response−low control)/(high control−low control)]×100%. Potent compounds were titrated and IC50 were calculated by 4 parameter sigmoidal curve fitting formula.
# DGAT2 Enzymatic Activity Assay
# DGAT2 activity was determined by measuring the amount of enzymatic product ^13C18-triolein (^13C-1,2,3-Tri(cis-9-octadecenoyl)glycerol) using the membrane prep mentioned above. The assay was carried out in ABgene 384-well assay plates in a final volume of 25 μL at rt. The assay mixture contained the following: assay buffer (100 mM Tris·Cl, pH 7.0, 20 mM MgCl2, 5% ethanol), 25 μM of diolein, 5 μM of ^13C oleoyl-CoA and 8 ng/μL of DGAT2 membrane.
row,Compound,IC50 [µM]
1,"CC(C(F)F)n1c(=O)n(-c2cccc(OC(F)F)c2)c2ccc(C(=O)NC3(C)CCS(=O)(=O)CC3)cc21 (single isomer, unassigned) [Example 45b, 1-(3-(Difluoromethoxy)phenyl)-3-(1,1-difluoropropan-2-yl)-N-(4-methyl-1,1-dioxidotetrahydro-2H-thiopyran-4-yl)-2-oxo-2,3-dihydro-1H-benzo[d]imidazole-5-carboxamide]",0.101
2,"CCC(C)n1c(=O)n(-c2cccc(OC(F)F)c2)c2ccc(C(=O)NC3(C)CS(=O)(=O)C3)cc21 (single isomer, unassigned) [Example 46a, 3-(sec-butyl)-1-(3-(difluoromethoxy)phenyl)-N-(3-methyl-1,1-dioxidothietan-3-yl)-2-oxo-2,3-dihydro-1H-benzo[d]imidazole-5-carboxamide]",0.081
3,"CCC(C)n1c(=O)n(-c2cccc(OC(F)F)c2)c2ccc(C(=O)NC3(C)CS(=O)(=O)C3)cc21 (single isomer, unassigned) [Example 46b, 3-(sec-butyl)-1-(3-(difluoromethoxy)phenyl)-N-(3-methyl-1,1-dioxidothietan-3-yl)-2-oxo-2,3-dihydro-1H-benzo[d]imidazole-5-carboxamide]",0.092
4,"CC(n1c(=O)n(-c2cccc(OC(F)F)c2)c2ccc(C(=O)NC3(C)CCS(=O)(=O)CC3)cc21)C(C)(C)O (single isomer, unassigned) [Example 67b, 1-(3-(difluoromethoxy)phenyl)-3-(3-hydroxy-3-methylbutan-2-yl)-N-(4-methyl-1,1-dioxidotetrahydro-2H-thiopyran-4-yl)-2-oxo-2,3-dihydro-1H-benzo[d]imidazole-5-carboxamide]",0.211

# Further lines, results first:
row,IC50 [µM],Compound
1,0.012,"CC(C(F)F)n1c(=O)n(-c2cccc(OC(F)F)c2)c2ccc(C(=O)NC3(C)CCS(=O)(=O)CC3)cc21 (single isomer, unassigned) [Example 45a, 1-(3-(Difluoromethoxy)phenyl)-3-(1,1-difluoropropan-2-yl)-N-(4-methyl-1,1-dioxidotetrahydro-2H-thiopyran-4-yl)-2-oxo-2,3-dihydro-1H-benzo[d]imidazole-5-carboxamide]"
2,0.0011,"CC(n1c(=O)n(-c2cc(OC(F)F)ccc2F)c2ccc(C(=O)NC3(C)CCS(=O)(=O)CC3)cc21)C(C)(C)O (single isomer, unassigned) [Example 66a, 1-(5-(difluoromethoxy)-2-fluorophenyl)-3-(3-hydroxy-3-methylbutan-2-yl)-N-(4-methyl-1,1-dioxidotetrahydro-2H-thiopyran-4-yl)-2-oxo-2,3-dihydro-1H-benzo[d]imidazole-5-carboxamide]"
3,0.0169,"CC(n1c(=O)n(-c2cc(OC(F)F)ccc2F)c2ccc(C(=O)NC3(C)CCS(=O)(=O)CC3)cc21)C(C)(C)O (single isomer, unassigned) [Example 66b, 1-(5-(difluoromethoxy)-2-fluorophenyl)-3-(3-hydroxy-3-methylbutan-2-yl)-N-(4-methyl-1,1-dioxidotetrahydro-2H-thiopyran-4-yl)-2-oxo-2,3-dihydro-1H-benzo[d]imidazole-5-carboxamide]"
4,0.0016,"CC(n1c(=O)n(-c2cccc(OC(F)F)c2)c2ccc(C(=O)NC3(C)CCS(=O)(=O)CC3)cc21)C(C)(C)O (single isomer, unassigned) [Example 67a, 1-(3-(difluoromethoxy)phenyl)-3-(3-hydroxy-3-methylbutan-2-yl)-N-(4-methyl-1,1-dioxidotetrahydro-2H-thiopyran-4-yl)-2-oxo-2,3-dihydro-1H-benzo[d]imidazole-5-carboxamide]"
5,0.0041,"CC(n1c(=O)n(-c2cccc(OCC(F)F)c2)c2ccc(C(=O)NC3(C)CCS(=O)(=O)CC3)cc21)C(C)(C)O (single isomer, unassigned) [Example 68a, 1-(3-(2,2-difluoroethoxy)phenyl)-3-(3-hydroxy-3-methylbutan-2-yl)-N-(4-methyl-1,1-dioxidotetrahydro-2H-thiopyran-4-yl)-2-oxo-2,3-dihydro-1H-benzo[d]imidazole-5-carboxamide]"
6,0.0018,"CC(n1c(=O)n(-c2cccc(OCC(F)F)c2)c2ccc(C(=O)NC3(C)CCS(=O)(=O)CC3)cc21)C(C)(C)O (single isomer, unassigned) [Example 68b, 1-(3-(2,2-difluoroethoxy)phenyl)-3-(3-hydroxy-3-methylbutan-2-yl)-N-(4-methyl-1,1-dioxidotetrahydro-2H-thiopyran-4-yl)-2-oxo-2,3-dihydro-1H-benzo[d]imidazole-5-carboxamide]"
7,0.0097,"CCOc1cc(-n2c(=O)n(C(C)C(C)(C)O)c3cc(C(=O)NC4(C)CCS(=O)(=O)CC4)ccc32)c(F)cn1 (single isomer, unassigned) [Example 69a, 1-(2-ethoxy-5-fluoropyridin-4-yl)-3-(3-hydroxy-3-methylbutan-2-yl)-N-(4-methyl-1,1-dioxidotetrahydro-2H-thiopyran-4-yl)-2-oxo-2,3-dihydro-1H-benzo[d]imidazole-5-carboxamide]"
8,0.0039,"CCOc1cc(-n2c(=O)n(C(C)C(C)(C)O)c3cc(C(=O)NC4(C)CCS(=O)(=O)CC4)ccc32)c(F)cn1 (single isomer, unassigned) [Example 69b, 1-(2-ethoxy-5-fluoropyridin-4-yl)-3-(3-hydroxy-3-methylbutan-2-yl)-N-(4-methyl-1,1-dioxidotetrahydro-2H-thiopyran-4-yl)-2-oxo-2,3-dihydro-1H-benzo[d]imidazole-5-carboxamide]"

# Same assay, conditions: membrane prep of Sf-9 cells expressing hDGAT2; 25 μM diolein, 5 μM 13C oleoyl-CoA; 13C18-triolein by LC/MS/MS; read-out: Human DGAT2 IC50
row,Compound,IC50 [µM]
1,"CC(n1c(=O)n(-c2cc(OC(F)F)ccc2F)c2ccc(C(=O)NC3(C)CS(=O)(=O)C3)cc21)C(C)(C)O (single isomer, unassigned) [EX-65a, 1-(5-(difluoromethoxy)-2-fluorophenyl)-3-(3-hydroxy-3-methylbutan-2-yl)-N-(3-methyl-1,1-dioxidothietan-3-yl)-2-oxo-2,3-dihydro-1H-benzo[d]imidazole-5-carboxamide]",0.053
2,"CC(n1c(=O)n(-c2cc(OC(F)F)ccc2F)c2ccc(C(=O)NC3(C)CS(=O)(=O)C3)cc21)C(C)(C)O (single isomer, unassigned) [EX-65b, 1-(5-(difluoromethoxy)-2-fluorophenyl)-3-(3-hydroxy-3-methylbutan-2-yl)-N-(3-methyl-1,1-dioxidothietan-3-yl)-2-oxo-2,3-dihydro-1H-benzo[d]imidazole-5-carboxamide]",0.0007
3,"CC(C(N)=O)n1c(=O)n(-c2cccc(OC(F)F)c2)c2ccc(C(=O)NC3(C)CCS(=O)(=O)CC3)cc21 (single isomer, unassigned) [EX-85a, 3-(1-amino-1-oxopropan-2-yl)-1-(3-(difluoromethoxy)phenyl)-N-(4-methyl-1,1-dioxidotetrahydro-2H-thiopyran-4-yl)-2-oxo-2,3-dihydro-1H-benzo[d]imidazole-5-carboxamide]",0.551
4,"CC(C(N)=O)n1c(=O)n(-c2cccc(OC(F)F)c2)c2ccc(C(=O)NC3(C)CCS(=O)(=O)CC3)cc21 (single isomer, unassigned) [EX-85b, 3-(1-amino-1-oxopropan-2-yl)-1-(3-(difluoromethoxy)phenyl)-N-(4-methyl-1,1-dioxidotetrahydro-2H-thiopyran-4-yl)-2-oxo-2,3-dihydro-1H-benzo[d]imidazole-5-carboxamide]",1.75
